The values below come from patent US8962527B2, “Process for preparation of herbicidal salts” (Nufarm Australia Limited, priority 2010, dated 2015).

Data set [1] is described as follows: pH of 3% solution of the finished product in H2O. It is filed as physicochemical. As to conditions: 3% solution in H2O. As for the experimental part: The reaction was monitored by addition of small amounts of reaction mixture to water. When the mixture provides a pH of 8 and remains at this pH the reaction was considered complete. The product was filtered and dried at temperature not greater than 60° C. The mother liquor is made up with fresh MTBE, ready for the next batch.

Data set [2] can be described thus: Hygroscopicity of the finished product. As to conditions: dried solid product. It is filed as physicochemical.

`CC(Oc1ccc(Cl)cc1Cl)C(=O)O.CNC` (centres unmarked) [Example 4, 2,4-DP/DMA Salt]: the pH in data set [1] was 5.8-6.5. Besides, the “hygroscopicity of product” value in data set [2] is reported as “not hydroscopic”.

For `CNC.Cc1cc(Cl)ccc1OCC(=O)O` [Example 1, MCPA/DMA Salt], the pH in data set [1] is listed as 5.5-6.5. Further, in data set [2], the “hygroscopicity of product” value is “extremely hydroscopic”.

On to `CNC.Cc1cc(Cl)ccc1OC(C)C(=O)O` (centres unmarked) [Example 3, MCPP/DMA Salt], for which, in data set [1], the pH is reported as 5.8-6.3. In data set [2], the “hygroscopicity of product” value was “extremely hydroscopic”.

As to `CNC.COc1c(Cl)ccc(Cl)c1C(=O)O` [Example 2, Dicamba/DMA Salt], in data set [1], the pH is given as 5.5-6.5. The “hygroscopicity of product” value in data set [2] is “extremely hydroscopic”.
